Reference: patent publication US9635854B2, “Controlling red rice with mesotrione” (FMC Corporation, priority 2014, dated 2017)
Where two headings read alike, the source gives them in different places.

Key:
[1] = test system: Rice (Oryza sativa) 'Cybonee'; details: PRE, direct-seeded flooded rice
Procedure: (§1) Rice (Oryza sativa) crop varieties (‘Cybonee’, ‘Jupiter’, and ‘Taggart’) and red rice (Oryza sativa) were planted in 6 inch plastic pots containing sterile top soil. Eight to ten seeds of each species were seeded at 12 o'clock, 3 o'clock, 6 o'clock or 9 o'clock around the pot. The pots were watered after planting. […] The test solutions were applied using a compressed air track spray chamber at 30 gallons per acre using a Teejet 8001E nozzle at 40 PSI, three replicates per test rate. After treatment, the pots were watered lightly and transferred to trays in a greenhouse. After the plants were two inches in height the trays were flooded with water and maintained as such for 14 days. The trays were emptied of water and the pots were maintained by regular watering for 4 more days. At 14, 21 and 28 days after treatment (DAT) the plants were evaluated versus untreated control pots containing the same rice and weeds using a scale of 0% (no control) to 100% (complete plant death).

[2] = test system: Rice (Oryza sativa) 'Jupiter'; details: PRE, direct-seeded flooded rice
Procedure: as §1

[3] = test system: Rice (Oryza sativa) 'Taggart'; details: PRE, direct-seeded flooded rice
Procedure: as §1

[4] = test system: Benghal dayflower (Commelina benghalensis); assay: Pre-emergent weed control in direct-seeded flooded rice (Example 2); format: in vivo; details: 28 Days After Treatment
Excerpt: (§2) Seeds of crops, rice (Taggart and Wells varieties) and weeds, yellow nutsedge (Cyperus esculentus), barnyardgrass (Echinochloa crus-galli), large crabgrass (Digitaria sanguinalis), hemp sesbania (Sesbania herbacea), Benghal dayflower (Commelina benghalensis), red rice (Oryza sativa) and broadleaf signalgrass (Urochloa platyphylla) were planted in two gallon pots containing top soil. Each pot was watered well before the application of mesotrione (Callisto® Herbicide from Syngenta Crop Protection).

[5] = test system: barnyardgrass (Echinochloa crus-galli); assay: as above; format: in vivo; details: 28 Days After Treatment
Excerpt: as §2

[6] = test system: broadleaf signalgrass (Urochloa platyphylla); assay: as above; format: in vivo; details: 28 Days After Treatment
Excerpt: as §2

[7] = test system: hemp sesbania (Sesbania herbacea); assay: as above; format: in vivo; details: 28 Days After Treatment
Excerpt: as §2

[8] = test system: large crabgrass (Digitaria sanguinalis); assay: as above; format: in vivo; details: 28 Days After Treatment
Excerpt: as §2

red rice (Oryza sativa) = assay: as above; format: in vivo; details: for % weed control Red Rice: pre-emergent, flooded, 28 Days After Treatment
Excerpt: as §2

[9] = test system: yellow nutsedge (Cyperus esculentus); assay: as above; format: in vivo; details: for % weed control Nutsedge: pre-emergent, flooded, 28 Days After Treatment
Excerpt: as §2

large crabgrass = assay: Direct seeded dryland rice test, pre-emergent (FIG. 2); format: in vivo; details: pre-emergent treatment at 25 g ai/ha
[10] = pre-emergent treatment at 50 g ai/ha, flooded rice test

Structure (SMILES): CS(=O)(=O)c1ccc(C(=O)C2C(=O)CCCC2=O)c([N+](=O)[O-])c1 [Mesotrione, mesotrione]
- Percent rice injury Cybonet ([1]; 14 DAT, 12.5 g ai/ha): 2 B %
- Percent rice injury Cybonet ([1]; 14 DAT, 25 g ai/ha): 0 B %
- Percent rice injury Cybonet ([1]; 14 DAT, 37.5 g ai/ha): 3 B %
- Percent rice injury Cybonet ([1]; 14 DAT, 50 g ai/ha): 4 B %
- Percent rice injury Cybonet ([1]; 14 DAT, 62.5 g ai/ha): 11 B %
- Percent rice injury Cybonet ([1]; 14 DAT, 75 g ai/ha): 9 B %
- Percent rice injury Cybonet ([1]; 14 DAT, 87.5 g ai/ha): 12 B %
- Percent rice injury Cybonet ([1]; 14 DAT, 100 g ai/ha): 11 B %
- Percent rice injury Cybonet ([1]; 21 DAT, 12.5 g ai/ha): 1 C %
- Percent rice injury Cybonet ([1]; 21 DAT, 25 g ai/ha): 4 C %
- Percent rice injury Cybonet ([1]; 21 DAT, 37.5 g ai/ha): 8 C %
- Percent rice injury Cybonet ([1]; 21 DAT, 50 g ai/ha): 6 C %
- Percent rice injury Cybonet ([1]; 21 DAT, 62.5 g ai/ha): 13 BC %
- Percent rice injury Cybonet ([1]; 21 DAT, 75 g ai/ha): 32 ABC %
- Percent rice injury Cybonet ([1]; 21 DAT, 87.5 g ai/ha): 44 AB %
- Percent rice injury Cybonet ([1]; 21 DAT, 100 g ai/ha): 49 A %
- Percent rice injury Cybonet ([1]; 28 DAT, 12.5 g ai/ha): 5 CD %
- Percent rice injury Cybonet ([1]; 28 DAT, 25 g ai/ha): 7 CD %
- Percent rice injury Cybonet ([1]; 28 DAT, 37.5 g ai/ha): 9 CD %
- Percent rice injury Cybonet ([1]; 28 DAT, 50 g ai/ha): 7 CD %
- Percent rice injury Cybonet ([1]; 28 DAT, 62.5 g ai/ha): 17 BCD %
- Percent rice injury Cybonet ([1]; 28 DAT, 75 g ai/ha): 32 ABC %
- Percent rice injury Cybonet ([1]; 28 DAT, 87.5 g ai/ha): 52 A %
- Percent rice injury Cybonet ([1]; 28 DAT, 100 g ai/ha): 62 A %
- Percent rice injury Jupiter ([2]; 14 DAT, 12.5 g ai/ha): 2 B %
- Percent rice injury Jupiter ([2]; 14 DAT, 25 g ai/ha): 2 B %
- Percent rice injury Jupiter ([2]; 14 DAT, 37.5 g ai/ha): 4 B %
- Percent rice injury Jupiter ([2]; 14 DAT, 50 g ai/ha): 2 B %
- Percent rice injury Jupiter ([2]; 14 DAT, 62.5 g ai/ha): 5 B %
- Percent rice injury Jupiter ([2]; 14 DAT, 75 g ai/ha): 6 B %
- Percent rice injury Jupiter ([2]; 14 DAT, 87.5 g ai/ha): 12 B %
- Percent rice injury Jupiter ([2]; 14 DAT, 100 g ai/ha): 11 B %
- Percent rice injury Jupiter ([2]; 21 DAT, 12.5 g ai/ha): 0 D %
- Percent rice injury Jupiter ([2]; 21 DAT, 25 g ai/ha): 0 D %
- Percent rice injury Jupiter ([2]; 21 DAT, 37.5 g ai/ha): 1 CD %
- Percent rice injury Jupiter ([2]; 21 DAT, 50 g ai/ha): 3 CD %
- Percent rice injury Jupiter ([2]; 21 DAT, 62.5 g ai/ha): 5 CD %
- Percent rice injury Jupiter ([2]; 21 DAT, 75 g ai/ha): 13 BCD %
- Percent rice injury Jupiter ([2]; 21 DAT, 87.5 g ai/ha): 22 BC %
- Percent rice injury Jupiter ([2]; 21 DAT, 100 g ai/ha): 28 B %
- Percent rice injury Jupiter ([2]; 28 DAT, 12.5 g ai/ha): 2 D %
- Percent rice injury Jupiter ([2]; 28 DAT, 25 g ai/ha): 2 D %
- Percent rice injury Jupiter ([2]; 28 DAT, 37.5 g ai/ha): 4 D %
- Percent rice injury Jupiter ([2]; 28 DAT, 50 g ai/ha): 5 D %
- Percent rice injury Jupiter ([2]; 28 DAT, 62.5 g ai/ha): 8 CD %
- Percent rice injury Jupiter ([2]; 28 DAT, 75 g ai/ha): 20 BCD %
- Percent rice injury Jupiter ([2]; 28 DAT, 87.5 g ai/ha): 44 B %
- Percent rice injury Jupiter ([2]; 28 DAT, 100 g ai/ha): 41 BC %
- Percent rice injury Taggart ([3]; 14 DAT, 12.5 g ai/ha): 4 B %
- Percent rice injury Taggart ([3]; 14 DAT, 25 g ai/ha): 1 B %
- Percent rice injury Taggart ([3]; 14 DAT, 37.5 g ai/ha): 4 B %
- Percent rice injury Taggart ([3]; 14 DAT, 50 g ai/ha): 7 B %
- Percent rice injury Taggart ([3]; 14 DAT, 62.5 g ai/ha): 12 B %
- Percent rice injury Taggart ([3]; 14 DAT, 75 g ai/ha): 12 B %
- Percent rice injury Taggart ([3]; 14 DAT, 87.5 g ai/ha): 19 B %
- Percent rice injury Taggart ([3]; 14 DAT, 100 g ai/ha): 18 B %
- Percent rice injury Taggart ([3]; 21 DAT, 12.5 g ai/ha): 1 D %
- Percent rice injury Taggart ([3]; 21 DAT, 25 g ai/ha): 1 D %
- Percent rice injury Taggart ([3]; 21 DAT, 37.5 g ai/ha): 1 D %
- Percent rice injury Taggart ([3]; 21 DAT, 50 g ai/ha): 6 D %
- Percent rice injury Taggart ([3]; 21 DAT, 62.5 g ai/ha): 10 CD %
- Percent rice injury Taggart ([3]; 21 DAT, 75 g ai/ha): 25 BCD %
- Percent rice injury Taggart ([3]; 21 DAT, 87.5 g ai/ha): 35 BC %
- Percent rice injury Taggart ([3]; 21 DAT, 100 g ai/ha): 38 B %
- Percent rice injury Taggart ([3]; 28 DAT, 12.5 g ai/ha): 2 C %
- Percent rice injury Taggart ([3]; 28 DAT, 25 g ai/ha): 4 C %
- Percent rice injury Taggart ([3]; 28 DAT, 37.5 g ai/ha): 4 C %
- Percent rice injury Taggart ([3]; 28 DAT, 50 g ai/ha): 9 C %
- Percent rice injury Taggart ([3]; 28 DAT, 62.5 g ai/ha): 9 C %
- Percent rice injury Taggart ([3]; 28 DAT, 75 g ai/ha): 29 BC %
- Percent rice injury Taggart ([3]; 28 DAT, 87.5 g ai/ha): 42 AB %
- Percent rice injury Taggart ([3]; 28 DAT, 100 g ai/ha): 53 AB %
- % weed control Dayflower ([4]; 6 g ai/ha): 17%
- % weed control Dayflower ([4]; 12 g ai/ha): 63%
- % weed control Dayflower ([4]; 25 g ai/ha): 67%
- % weed control Dayflower ([4]; 50 g ai/ha): 93%
- % weed control Dayflower ([4]; 100 g ai/ha): 83%
- % weed control Dayflower ([4]; 200 g ai/ha): 90%
- % weed control Barnyardgrass ([5]; 6 g ai/ha): 10%
- % weed control Barnyardgrass ([5]; 12 g ai/ha): 32%
- % weed control Barnyardgrass ([5]; 25 g ai/ha): 35%
- % weed control Barnyardgrass ([5]; 50 g ai/ha): 62%
- % weed control Barnyardgrass ([5]; 100 g ai/ha): 82%
- % weed control Barnyardgrass ([5]; 200 g ai/ha): 100%
- % weed control Signalgrass ([6]; 6 g ai/ha): 23%
- % weed control Signalgrass ([6]; 12 g ai/ha): 23%
- % weed control Signalgrass ([6]; 25 g ai/ha): 57%
- % weed control Signalgrass ([6]; 50 g ai/ha): 90%
- % weed control Signalgrass ([6]; 100 g ai/ha): 98%
- % weed control Signalgrass ([6]; 200 g ai/ha): 100%
- % weed control Hemp ([7]; 6 g ai/ha): 0%
- % weed control Hemp ([7]; 12 g ai/ha): 30%
- % weed control Hemp ([7]; 25 g ai/ha): 13%
- % weed control Hemp ([7]; 50 g ai/ha): 45%
- % weed control Hemp ([7]; 100 g ai/ha): 98%
- % weed control Hemp ([7]; 200 g ai/ha): 100%
- % weed control Crabgrass ([8]; 6 g ai/ha): 70%
- % weed control Crabgrass ([8]; 12 g ai/ha): 100%
- % weed control Crabgrass ([8]; 25 g ai/ha): 100%
- % weed control Crabgrass ([8]; 50 g ai/ha): 100%
- % weed control Crabgrass ([8]; 100 g ai/ha): 100%
- % weed control Crabgrass ([8]; 200 g ai/ha): 100%
- red rice control (words, FIG. 1) (red rice (Oryza sativa); [10]): controlled
- % weed control Red Rice (red rice (Oryza sativa); 6 g ai/ha): 23%
- % weed control Red Rice (red rice (Oryza sativa); 12 g ai/ha): 33%
- % weed control Red Rice (red rice (Oryza sativa); 25 g ai/ha): 90%
- % weed control Red Rice (red rice (Oryza sativa); 50 g ai/ha): 100%
- % weed control Red Rice (red rice (Oryza sativa); 100 g ai/ha): 97%
- % weed control Red Rice (red rice (Oryza sativa); 200 g ai/ha): 100%
- red rice control (red rice (Oryza sativa); summary of Table 7 data): controls
- yellow nutsedge control (words, FIG. 1) [9, 10]: controlled
- % weed control Nutsedge ([9]; 6 g ai/ha): 38%
- % weed control Nutsedge ([9]; 12 g ai/ha): 77%
- % weed control Nutsedge ([9]; 25 g ai/ha): 92%
- % weed control Nutsedge ([9]; 50 g ai/ha): 97%
- % weed control Nutsedge ([9]; 100 g ai/ha): 100%
- % weed control Nutsedge ([9]; 200 g ai/ha): 100%
- large crabgrass control (words, FIG. 2) (large crabgrass): controlled
